The text below walks through data of publication PMC6110523 (Biochemistry, 2018).

The target of this assay is HER2 (Homo sapiens, UniProt P04626). The experiment in a line: DiscoverX scanELECT competition binding at […].
HER2, sequence (P04626 720-987 limits assumed): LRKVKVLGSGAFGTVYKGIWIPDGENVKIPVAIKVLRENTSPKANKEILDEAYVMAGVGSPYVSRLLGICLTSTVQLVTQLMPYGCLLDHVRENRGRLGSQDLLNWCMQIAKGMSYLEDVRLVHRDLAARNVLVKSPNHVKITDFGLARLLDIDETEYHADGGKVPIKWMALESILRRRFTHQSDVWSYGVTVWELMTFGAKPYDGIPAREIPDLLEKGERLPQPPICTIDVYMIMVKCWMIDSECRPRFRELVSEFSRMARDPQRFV

Take `CS(=O)(=O)CCNCc1ccc(-c2ccc3ncnc(Nc4ccc(OCc5cccc(F)c5)c(Cl)c4)c3c2)o1` [lapatinib]: the “% control at 1 μM” value turned out to be 0.
